Each block holds one molecule with its values, some of them ahead of it. e = 2'-O-(2-methoxyethyl) (MOE); d = 2'-deoxy (DNA)
Key:
Type in all cases: cell-based, human
[1] = tested on: phosphorylated Stat3; assay: Western blot for phosphorylated Stat3 after gefitinib in NSCLC cells; conditions: 24 hours
Procedure: (§1) Protein expression analysis. Cell lysates were normalized for total protein content (50 μg) and subjected to SDS-PAGE as described by Song et al., Oncogene 22:4150-65 (2003). Primary antibodies used in these studies consisted of Stat3 (Transduction Laboratories; BD Biosciences, Mississauga, Ontario, Canada), pStat3 Y705 (Cell Signaling Technology), cleaved poly (ADP-ribose) polymerase (Cell Signaling Technology, Beverly, Mass.), Mcl-1 (Santa Cruz Biotechnology, Santa Cruz, Calif.), Bcl-2 (DAKO, Carpinteria, Calif.), Bcl-xL (PharMingen, San Diego, Calif.), and β-actin (Sigma-Aldrich, Milwaukee, Wis.). Detection of proteins was accomplished using horseradish peroxidase-conjugated secondary antibodies and enhanced chemiluminescence purchased through Amersham Biosciences (Pittsburgh, Pa.).

[2] = tested on: Stat3; assay: IL-6 stimulation: EMSA of Stat3 DNA-binding activity; conditions: serum-starved MDA-MB-435s cells; IL-6 20 or 30 ng/mL; within 30 minutes
Procedure: Nuclear extract preparation and EMSA. Nuclear extracts were prepared as previously described by Yu et al., Science 269:81-83 (1995), which is incorporated herein by reference, by high-salt extraction into 30 to 70 μL buffer [20 mmol/L HEPES (pH 7.9), 420 mmol/L NaCl, 1 mmol/L EDTA, 20% glycerol, 20 mmol/L NaF, 1 mmol/L Na3VO4, 1 mmol/L Na4P2O7, 1 mmol/L DTT, 0.5 mmol/L phenylmethylsulfonyl fluoride, 0.1 μmol/L aprotinin, 1 μmol/L leupeptin, and 1 μmol/L antipain]. For EMSA, 5 μg of total nuclear protein were used for each lane. EMSA was done using a ^32P-labeled oligonucleotide probe containing a high-affinity cis-inducible element (hSIE, m67 variant) derived from the c-fos gene promoter (sense strand 5′[…]-3′) (SEQ ID NO: 3) that binds activated Stat3 proteins. Following incubation of radiolabeled probes with nuclear extracts, protein-DNA complexes were resolved by nondenaturing PAGE and detected by autoradiography. Stat3 protein was supershifted in the EMSA by preincubation with Stat3 antibody (C-20X, Santa Cruz Biotechnology, Santa Cruz, Calif.).
To investigate whether cytokine-induced Stat3 activity correlates with increased Survivin expression in breast cancer cells, cells were stimulated with IL-6 to increase Stat3 activation. […]

[3] = tested on: MDA-MB-435s cells; assay: IL-6 stimulation: Western blot for phosphor-Stat3 and Survivin; conditions: IL-6 treatment, after 48 hours
Procedure: (§2) Western blot analyses. Cells were lysed in a buffer containing 10 mmol/L Tris-HCl (pH 8.0), 150 mmol/L NaCl, 1% NP40, 0.5% sodium deoxycholate, 0.1% SDS, 1 mmol/L EDTA (pH 8.0), 2 mmol/L phenylmethylsulfonyl fluoride, 2 μg/mL aprotinin, 2 μg/mL leupeptin, and 1 mmol/L Na3VO4. For Western blot analyses, 30 μg of total extracted proteins were applied per lane before SDS-PAGE. Following transfer to nitrocellulose membranes, protein expression levels were detected using polyclonal anti-poly-(ADP-ribose) polymerase antibodies (Cell Signaling Technology, Beverly, Mass.). The expression of β-actin (Sigma-Aldrich, St. Louis, Mo.) was used as a normalization control for protein loading.
To investigate whether cytokine-induced Stat3 activity correlates with increased Survivin expression in breast cancer cells, cells were stimulated with IL-6 to increase Stat3 activation. For IL-6 stimulation, cells were serum-starved (DMEM supplemented with 0.1% fetal bovine serum) for 18 hours before IL-6 treatment (20 or 30 ng/mL in DMEM) for 30 minutes (EMSA) or 48 hours (Western blot analysis). Nuclear extracts and cell lysates were prepared for EMSA and Western blot analysis, respectively, as described above.

[4] = tested on: MDA-MB-435s and MDA-MB-231 cells; assay: Cellular viability by trypan blue exclusion assay; conditions: after 24 or 48 hours of incubation
Procedure: (§3) In situ terminal deoxyribonucleotidyl transferase-mediated dUTP nick end labeling and cellular proliferation assays. MDA-MB-435s and MDA-MB-231 cells were transfected with antisense or control mismatch oligonucleotides. After 48 hours, cells were labeled for apoptotic DNA strand breaks by terminal deoxyribonucleotidyl transferase-mediated dUTP nick end labeling (TUNEL) reaction using an in situ cell death detection assay (Roche Applied Science, Indianapolis, Ind.) according to the instructions of the supplier. TUNEL-positive nuclei were counted and the apoptotic index was expressed as the number of apoptotic cells in one microscopic field. To determine cellular viability, cells were harvested by trypsinization and counted by trypan blue exclusion assay at 24 and 48 hours after transfection. All experiments were done in triplicate.

[5] = tested on: MDA-MB-435s and MDA-MB-231 cells; assay: Apoptosis assays (microscopy, in situ TUNEL, PARP cleavage Western blot) in breast cancer cells
Procedure: To assess whether apoptosis was occurring in the cells after blocking of Stat3 the cells were examined microscopically and a TUNEL assay and poly-(ADP)-ribose polymerase (PARP) cleavage assay were performed.
as §3, §2

[6] = tested on: MDA-MB-435s cells; assay: Microarray gene expression profiling after blockade of Stat3; conditions: 24 hours
Procedure: Microarray gene expression profiling analyses were completed to assess the gene expression changes associated with blockade of Stat3 activity. Five micrograms of total RNA collected from MDA-MB-435s cells treated with antisense or control mismatch oligonucleotides for 24 hours served as the mRNA sources for microarray analysis. The poly(A) mRNA was specifically converted to cDNA and then amplified and labeled with biotin following the procedure initially described by Van Gelder et al., Proc. Natl. Acad. Sci. USA 87:1663-67 (1990) which is incorporated herein by reference. Hybridization with the biotin-labeled DNA, staining, and scanning of the microarray chips followed the prescribed procedure outlined in the Affymetrix technical manual.
The oligonucleotide probe arrays were Human Genome U133A chips (Affymetrix, Santa Clara, Calif.). Scanned output files were visually inspected for hybridization artifacts and then analyzed using Affymetrix Microarray MAS 5.0 software. The MAS 5.0 software identifies the increased and decreased genes between any two samples with a statistical algorithm that assesses the behavior of oligonucleotide probe sets designed to detect the same gene. Probe sets that yielded a change at P<0.0045 were identified as changed (increased or decreased). In addition, the data were processed using robust multiarray analysis as described by Bolstad et al., Bioinformatics 19:185-93 (2003) which is incorporated herein by reference in its entirety. […] Empirical estimates of the null distribution were determined using permutation analysis, thereby controlling the number of false positives. The significance analysis of microarrays (as described by Tusher et al., Proc Natl Acad Sci USA 98:5116-21 (2001), which is incorporated herein by reference) implements this approach to address the multiple testing problem and was also applied to the data analysis.

[7] = tested on: Stat3 mRNA; assay: RNase protection assay of Stat3 mRNA after transfection with antisense oligonucleotides; conditions: MDA-MB-435s cells; compared with the mismatch oligonucleotides; 24 and 36 hours after transfection
Procedure: (§4) The human breast cancer cell line MDA-MB-435s, harbors activated Stat3. The cells were grown in DMEM supplemented with 10% fetal bovine serum, 100 units/mL penicillin, and 100 μg/mL streptomycin. The cells were transfected with Stat3 antisense or mismatch oligonucleotides using Lipofectamine-Plus as described by the supplier (Life Technologies, Grand Island, N.Y.). The Stat3 antisense (5′[…]-3′) (SEQ ID NO: 1) and control mismatch (5′[…]-3′) (SEQ ID NO: 2) oligonucleotides were synthesized using phosphorothioate chemistry. To increase stability, oligonucleotides were synthesized with 2′-O-methoxyethyl modification of the five or three underlined terminal nucleotides. The final concentration for Stat3 antisense and control mismatch oligonucleotides was […]. Twenty-four and 36 hours after transfection, the mRNA levels and DNA-binding activities of Stat3 were measured by RNase protection and electrophoretic mobility shift (EMSA) assays, respectively.
RNase protection assay. Total RNA was isolated from MDA-MB-435s cells using the RNAeasy mini kit (Qiagen, Valencia, Calif.). RNase protection assays were carried out with the Riboquant hStress-1 template set containing Bcl-xL and Mcl-1 probes or custom-made multiprobe templates containing Stat3 probes (BD PharMingen, San Diego, Calif.). […]

[8] = tested on: Survivin; assay: RNase protection assay and Western blot for Survivin after Stat3 antisense
Procedure: RNase protection assay. Total RNA was isolated from MDA-MB-435s cells using the RNAeasy mini kit (Qiagen, Valencia, Calif.). RNase protection assays were carried out with the Riboquant hStress-1 template set containing Bcl-xL and Mcl-1 probes or custom-made multiprobe templates containing Stat3 probes (BD PharMingen, San Diego, Calif.). Briefly, the multiprobe templates were synthesized by in vitro transcription with incorporation of […] and purified on Quick Spin RNA columns (Roche Applied Science, Indianapolis, Ind.). Labeled probe (1×10^6 cpm) was hybridized with 10 μg of total RNA through a temperature gradient of 90° C. to 56° C. over a 16-hour period. […]
Western blot analyses. […] Following transfer to nitrocellulose membranes, protein expression levels were detected using polyclonal anti-poly-(ADP-ribose) polymerase antibodies (Cell Signaling Technology, Beverly, Mass.). […]
The microarray data were validated using an RNase protection assay using a Survivin probe (BD PharMingen, San Diego, Calif.) as described above. […] Protein expression levels were detected using polyclonal anti-Stat3 (Santa Cruz Biotechnology, Santa Cruz, Calif.) and polyclonal anti-Survivin (Alpha Diagnostics International, San Antonio, Tex.) antibodies.

[9] = tested on: H1650, H1975 and H1299 cells; assay: Western blot for Stat3, cleaved PARP and Bcl-2 family proteins after antisense Stat3 in NSCLC cells
Procedure: as §1
To determine if Stat3 plays a role in survival in EGFR mutant cells, antisense Stat3 oligonucleotides were used to down-regulate Stat3 as described above. […] Levels of the Bcl-2 family proteins Bcl-xL, Mcl-1, and Bcl-2 were reduced in cells treated with antisense Stat3 consistent with the known role of Stat3 in regulating these proteins (FIG. 9E).

[10] = tested on: Stat3; assay: EMSA of Stat3 DNA-binding activity after antisense transfection; conditions: MDA-MB-435s cells, 24 and 36 hours after transfection
Procedure: as §4
Nuclear extract preparation and EMSA. […] Following incubation of radiolabeled probes with nuclear extracts, protein-DNA complexes were resolved by nondenaturing PAGE and detected by autoradiography. […]

[11] = Survivin antisense 300 nmol/L, MDA-MB-435s and MDA-MB-231 cells

Molecule: COc1cc2ncnc(Nc3ccc(F)c(Cl)c3)c2cc1OCCCN1CCOCC1 [gefitinib, Gefitinib]
phosphorylated Stat3 ([1]; H1650 cells with the L746-p753 deletion mutation in EGFR): no effect on phosphorylated Stat3
phosphorylated Stat3 ([1]; H1975 cells): no effect on phosphorylated Stat3
phosphorylated Stat3 ([1]; H3255 cells with the L858R mutation in EGFR, increasing doses): complete inhibition of phosphorylated Stat3

Stat3 DNA-binding activity (EMSA) [2]: increases Stat3 DNA-binding activity
Molecule: IL-6: interleukin-6, cytokine used to stimulate cells and increase Stat3 activation
Survivin protein expression (Western blot) [3]: induced
phosphor-Stat3 levels (Western blot) [3]: induced

Molecule: Stat3 antisense: Stat3 antisense 5′GCTCCAGCATCTGCTGCTTC-3′ (SEQ ID NO: 1), phosphorothioate chemistry with 2′-O-methoxyethyl modification of terminal nucleotides (sugars from the 5' end e5 d10 e5, all phosphorothioate, methylation of C not given here; listed as Homo sapiens)
growth inhibition by trypan blue exclusion [4]: induced significant growth inhibition
apoptosis by in situ TUNEL assay ([5]; Stat3 antisense, 48 hours): occurrence of apoptosis was confirmed
cleavage of poly-(ADP-ribose) polymerase ([5]; Stat3 antisense, 48 hours after treatment): cleavage of poly-(ADP-ribose) polymerase
vacuolated cells and cellular debris (light microscopy) ([5]; incubation for up to 48 hours): marked increase in vacuolated cells and cellular debris
expression of Bcl-2 family proteins by microarray analysis [6]: did not reveal consistent decreases
expression of other IAP family members (X-linked IAP, cellular IAP-1, cellular IAP-2) by microarray [6]: no change
expression of Survivin by microarray analysis ([6]; antisense vs control mismatch): found to be diminished
Stat3 mRNA expression [7]: diminished Stat3 mRNA expression
mRNA expression of Survivin (RNase protection assay) ([8]; antisense oligonucleotide-treated breast cancer cells): decrease in mRNA expression of Survivin
Survivin protein expression (Western blot) ([8]; breast cancer cells): decreased Survivin expression
apoptosis ([9]; H1299 cells, despite Stat3 knock-down): No apoptosis was observed
Stat3 protein levels ([9]; H1650 and H1975 cells): decreased Stat3 protein levels
cleavage of poly(ADP-ribose) polymerase indicative of apoptosis ([9]; H1650 and H1975 cells): cleavage of poly(ADP-ribose) polymerase
Levels of the Bcl-2 family proteins Bcl-xL, Mcl-1, and Bcl-2 ([9]; cells treated with antisense Stat3 vs mismatch control): reduced
Stat3 DNA-binding activity [10]: significant decrease in Stat3 DNA-binding activity

Molecule: antisense oligonucleotides directed against Survivin: Antisense oligonucleotides directed against Survivin 5′-CCCAGCCTTCCAGCTCCTTG-3′ (SEQ ID NO: 4), synthesized using phosphorothioate chemistry (sugars from the 5' end e3 d14 e3, all phosphorothioate, methylation of C not given here; listed as Homo sapiens)
Poly-(ADP-ribose) polymerase cleavage [5, 11]: evident
in situ TUNEL staining [5, 11]: evident

Source: patent publication US8133692B2, “Methods of predicting responsiveness to chemotherapeutic agents and selecting treatments” (University of South Florida, priority 2005, dated 2012)
